# Laboratory results reported in PubChem BioAssay (NCI).
#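 Results reflect a 48-hour exposure of cells in 96-well plates to compound at five concentrations. GI50 marks 50% less growth. TGI: total growth inhibition.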
# Key:
# Experiment in all cases: NCI-60 cell line screen, 48 h
# [1] = system: SF-268 CNS
# [2] = system: T-47D breast
# [3] = system: HOP-92 NSCLC
# [4] = system: 786-0 renal
# [5] = system: ACHN renal
# [6] = system: MDA-MB-231 breast
# [7] = system: U251 CNS
# [8] = system: CCRF-CEM leukemia
# [9] = system: OVCAR-8 ovarian
# [10] = system: MDA-N
# [11] = system: SR leukemia
# [12] = system: HCC-2998 colon
# [13] = system: HOP-62 NSCLC
# [14] = system: MALME-3M melanoma
# [15] = system: RPMI-8226 leukemia
# [16] = system: SK-OV-3 ovarian
# [17] = system: HL-60(TB) leukemia
# [18] = system: SF-295 CNS
# [19] = system: A498 renal
# [20] = system: HT29 colon
# [21] = system: SNB-75 CNS
# [22] = system: K-562 leukemia
# [23] = system: EKVX NSCLC
# [24] = system: HCT-15 colon
# [25] = system: UO-31 renal
# [26] = system: SNB-19 CNS
# [27] = system: MCF7 breast
# [28] = system: OVCAR-5 ovarian
# [29] = system: RXF 393 renal
# [30] = system: OVCAR-3 ovarian
# [31] = system: SK-MEL-2 melanoma
# [32] = system: SW-620 colon
# [33] = system: M14 melanoma
# [34] = system: NCI-H522 lung
# [35] = system: MOLT-4 leukemia
# [36] = system: SK-MEL-5 melanoma
# [37] = system: SK-MEL-28 melanoma
# [38] = system: UACC-62 melanoma
# [39] = system: IGROV1 ovarian
# [40] = system: HCT-116 colon
# [41] = system: NCI-H460 lung
# [42] = system: MDA-MB-435
# [43] = system: BT-549 breast
# [44] = system: CAKI-1 renal
# [45] = system: NCI/ADR-RES ovarian
# [46] = system: SF-539 CNS
# [47] = system: NCI-H226 lung
# [48] = system: PC-3 prostate
# [49] = system: KM12 colon
# [50] = system: SN12C renal
# [51] = system: DU-145 prostate
# [52] = system: TK-10 renal
# [53] = system: NCI-H23 lung
# [54] = system: LOX IMVI melanoma
# [55] = system: HS 578T breast
# [56] = system: COLO 205 colon
# [57] = system: OVCAR-4 ovarian
# [58] = system: UACC-257 melanoma
# [59] = system: A549 NSCLC
smiles,measurement,setting,value
O=c1[nH]c2nccn2c(Cl)c1Br,TGI,[1],49.1 µM
same,TGI,[2],67.8 µM
same,TGI,[3],78.7 µM
same,TGI,[4],> 100 µM
same,TGI,[5],70.1 µM
same,TGI,[6],37.4 µM
same,TGI,[7],34.4 µM
same,TGI,[8],46.7 µM
same,TGI,[9],39.3 µM
same,TGI,[10],45.8 µM
same,TGI,[11],48.7 µM
same,TGI,[12],36 µM
same,TGI,[13],> 100 µM
same,TGI,[14],38.3 µM
same,TGI,[15],> 100 µM
same,TGI,[16],86.9 µM
same,TGI,[17],33.5 µM
same,TGI,[18],> 100 µM
same,TGI,[19],> 100 µM
same,TGI,[20],48.8 µM
same,TGI,[21],77.8 µM
same,TGI,[22],39.1 µM
same,TGI,[23],40.3 µM
same,TGI,[24],33.2 µM
same,TGI,[25],> 100 µM
same,TGI,[26],70.5 µM
same,TGI,[27],> 100 µM
same,TGI,[28],49.1 µM
same,TGI,[29],20.8 µM
same,TGI,[30],35.7 µM
same,TGI,[31],16.3 µM
same,TGI,[32],60.1 µM
same,TGI,[33],34.5 µM
same,TGI,[34],29.8 µM
same,TGI,[35],42.6 µM
same,TGI,[36],64.9 µM
same,TGI,[37],36 µM
same,TGI,[38],43.3 µM
same,TGI,[39],45.4 µM
same,TGI,[40],> 100 µM
same,TGI,[41],> 100 µM
same,TGI,[42],42 µM
same,TGI,[43],47.2 µM
same,TGI,[44],40.7 µM
same,TGI,[45],73.2 µM
same,TGI,[46],> 100 µM
same,TGI,[47],89.4 µM
same,TGI,[48],> 100 µM
same,TGI,[49],> 100 µM
same,TGI,[50],67.5 µM
same,TGI,[51],> 100 µM
same,TGI,[52],> 100 µM
same,TGI,[53],36.3 µM
same,TGI,[54],34.4 µM
same,TGI,[55],66 µM
same,TGI,[56],34.4 µM
same,TGI,[57],34.9 µM
same,TGI,[58],45.7 µM
same,TGI,[59],> 100 µM
CCOC(=O)CCc1c(C)c2ccc(O)cc2oc1=O,TGI,[1],> 100 µM
same,TGI,[2],> 100 µM
same,TGI,[3],> 100 µM
same,TGI,[4],> 100 µM
same,TGI,[5],> 100 µM
same,TGI,[6],> 100 µM
same,TGI,[7],> 100 µM
same,TGI,[8],> 100 µM
same,TGI,[9],> 100 µM
same,TGI,[10],> 100 µM
same,TGI,[11],> 100 µM
same,TGI,[12],> 100 µM
same,TGI,[13],> 100 µM
same,TGI,[14],> 100 µM
same,TGI,[15],> 100 µM
same,TGI,[17],> 100 µM
same,TGI,[18],> 100 µM
same,TGI,[19],> 100 µM
same,TGI,[20],> 100 µM
same,TGI,[21],> 100 µM
same,TGI,[22],> 100 µM
same,TGI,[23],> 100 µM
same,TGI,[24],> 100 µM
same,TGI,[26],> 100 µM
same,TGI,[27],> 100 µM
same,TGI,[28],> 100 µM
same,TGI,[29],> 100 µM
same,TGI,[30],> 100 µM
same,TGI,[31],> 100 µM
same,TGI,[32],> 100 µM
same,TGI,[33],> 100 µM
same,TGI,[34],> 100 µM
same,TGI,[35],> 100 µM
same,TGI,[36],> 100 µM
same,TGI,[37],> 100 µM
same,TGI,[38],> 100 µM
same,TGI,[39],> 100 µM
same,TGI,[40],> 100 µM
same,TGI,[41],> 100 µM
same,TGI,[42],> 100 µM
same,TGI,[43],> 100 µM
same,TGI,[44],> 100 µM
same,TGI,[45],> 100 µM
same,TGI,[46],> 100 µM
same,TGI,[47],> 100 µM
same,TGI,[48],> 100 µM
same,TGI,[50],> 100 µM
same,TGI,[51],> 100 µM
same,TGI,[52],> 100 µM
same,TGI,[53],> 100 µM
same,TGI,[54],> 100 µM
same,TGI,[55],> 100 µM
same,TGI,[56],> 100 µM
same,TGI,[57],> 100 µM
same,TGI,[58],> 100 µM
same,TGI,[59],> 100 µM
C/C(=C\c1csc(C)n1)[C@@H]1C[C@@H]2O[C@]2(C)CCC[C@H](C)[C@H](O)[C@@H](C)C(=O)C(C)(C)[C@@H](O)CC(=O)O1 (tested in a mixture with another compound),TGI,[1],> 1 µM
same,TGI,[2],> 1 µM
same,TGI,[3],> 1 µM
same,TGI,[4],> 1 µM
same,TGI,[5],> 1 µM
same,TGI,[6],> 0.346 µM
same,TGI,[7],> 1 µM
same,TGI,[9],> 0.33 µM
same,TGI,[10],0.00205 µM
same,TGI,[11],> 0.239 µM
same,GI50,[12],0.00305 µM
same,TGI,[13],> 1 µM
same,TGI,[14],> 1 µM
same,TGI,[15],> 0.172 µM
same,TGI,[16],> 0.72 µM
same,TGI,[17],0.0278 µM
same,TGI,[18],0.0369 µM
same,TGI,[19],> 1 µM
same,GI50,[20],0.000721 µM
same,TGI,[20],> 0.378 µM
same,GI50,[21],0.00551 µM
same,GI50,[22],0.0262 µM
same,TGI,[22],> 1 µM
same,TGI,[23],> 1 µM
same,TGI,[24],> 1 µM
same,TGI,[25],> 1 µM
same,GI50,[26],0.025 µM
same,TGI,[26],> 1 µM
same,TGI,[27],> 1 µM
same,TGI,[28],> 1 µM
same,TGI,[29],0.0211 µM
same,TGI,[30],0.0839 µM
same,TGI,[31],> 0.464 µM
same,TGI,[32],> 1 µM
same,TGI,[33],> 1 µM
same,TGI,[34],0.00766 µM
same,TGI,[35],> 0.307 µM
same,TGI,[36],> 1 µM
same,TGI,[37],> 1 µM
same,TGI,[38],> 1 µM
same,TGI,[39],> 1 µM
same,TGI,[40],> 0.183 µM
same,TGI,[41],> 1 µM
same,TGI,[42],0.00284 µM
same,TGI,[43],> 1 µM
same,TGI,[44],> 1 µM
same,TGI,[45],0.13 µM
same,TGI,[46],0.0348 µM
same,TGI,[47],> 1 µM
same,TGI,[48],> 1 µM
same,TGI,[49],> 0.44 µM
same,TGI,[50],> 1 µM
same,GI50,[51],0.00528 µM
same,TGI,[51],0.0682 µM
same,TGI,[52],> 1 µM
same,TGI,[53],> 1 µM
same,TGI,[54],> 1 µM
same,TGI,[55],> 1 µM
same,TGI,[56],0.119 µM
same,TGI,[57],> 1 µM
same,TGI,[58],> 1 µM
same,TGI,[59],> 1 µM
